From patent publication US20260242362A1, “PREPARATION OF 3,4,5-TRISUBSTITUTED TRIAZOLES AND METHODS OF USING THE SAME” (University of Florida Research Foundation, Incorporated, priority 2023, published 2026)
Where two headings read alike, the source gives them in different places.

What was measured:
kappa opioid receptor [1] = target: T1, kappa opioid receptor (Homo sapiens, UniProt P41145); assay: PathHunter DiscoverX β-arrestin2 recruitment (enzyme fragment complementation) assay; type: cell-based; conditions: for EC50: 3 parameter nonlinear regression, nc = did not converge; for β-arrestin2 Emax (% U60): relative to U69,593 = 100% Emax, ~ did not plateau at 100%; for β-arrestin2 maximum stimulation observed at 10 μM (starred Emax cells / % max at 10 uM): * compounds that did not reach plateau
Target sequence in this assay (P41145 whole entry, the tested form may be a part): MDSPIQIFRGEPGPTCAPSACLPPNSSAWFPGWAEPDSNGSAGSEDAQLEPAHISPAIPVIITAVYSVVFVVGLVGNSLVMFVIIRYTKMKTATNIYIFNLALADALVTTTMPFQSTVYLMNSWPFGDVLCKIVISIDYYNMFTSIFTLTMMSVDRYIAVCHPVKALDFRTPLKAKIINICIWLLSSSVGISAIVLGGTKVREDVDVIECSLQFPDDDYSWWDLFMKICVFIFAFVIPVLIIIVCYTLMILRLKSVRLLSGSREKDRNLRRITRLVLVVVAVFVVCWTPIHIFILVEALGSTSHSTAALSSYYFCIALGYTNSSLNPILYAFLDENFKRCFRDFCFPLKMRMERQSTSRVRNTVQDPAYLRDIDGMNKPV
Target sequence in this assay (P32121 whole entry partner, the tested form may be a part): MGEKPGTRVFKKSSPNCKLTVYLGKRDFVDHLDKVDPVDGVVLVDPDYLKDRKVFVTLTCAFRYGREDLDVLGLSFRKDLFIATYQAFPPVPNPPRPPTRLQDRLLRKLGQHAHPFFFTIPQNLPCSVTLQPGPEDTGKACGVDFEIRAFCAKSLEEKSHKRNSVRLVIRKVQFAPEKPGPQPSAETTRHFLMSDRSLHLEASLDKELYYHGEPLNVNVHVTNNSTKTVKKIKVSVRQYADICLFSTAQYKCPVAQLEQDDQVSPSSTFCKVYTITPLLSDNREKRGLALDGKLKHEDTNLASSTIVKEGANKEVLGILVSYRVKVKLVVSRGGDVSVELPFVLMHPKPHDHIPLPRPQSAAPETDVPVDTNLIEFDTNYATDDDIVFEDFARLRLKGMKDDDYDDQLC

δ-opioid receptor = target: T2, δ-opioid receptor (Homo sapiens, UniProt P41143); assay: Radioligand binding displacement (Psychoactive Drug Screening Program); conditions: initial profiling
T2 construct: Psychoactive Drug Screening Program (UNC-CH)
T2 sequence (P41143 whole entry): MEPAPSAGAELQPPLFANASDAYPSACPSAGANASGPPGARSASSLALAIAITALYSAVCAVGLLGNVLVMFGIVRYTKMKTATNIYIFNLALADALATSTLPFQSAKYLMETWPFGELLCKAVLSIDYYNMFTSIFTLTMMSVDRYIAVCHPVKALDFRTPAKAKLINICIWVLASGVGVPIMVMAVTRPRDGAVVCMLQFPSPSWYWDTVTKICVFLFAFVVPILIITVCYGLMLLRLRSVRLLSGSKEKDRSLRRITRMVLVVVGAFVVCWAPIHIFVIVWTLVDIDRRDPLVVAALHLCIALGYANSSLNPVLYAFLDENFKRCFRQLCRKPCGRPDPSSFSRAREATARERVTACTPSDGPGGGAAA
Text: (§1) In some embodiments, the compounds disclosed herein are selective KOR binding ligands. As used herein, the term “selective binding ligands” refers to compounds, which display an increased selectivity for binding a particular KOR when compared to inhibiting other opioid receptors (such as μ- and δ-opioid receptors).

μ-opioid receptor = target: T3, μ-opioid receptor (Homo sapiens, UniProt P35372); assay: as above; conditions: initial profiling
T3 construct: Psychoactive Drug Screening Program (UNC-CH)
T3 sequence (P35372 whole entry): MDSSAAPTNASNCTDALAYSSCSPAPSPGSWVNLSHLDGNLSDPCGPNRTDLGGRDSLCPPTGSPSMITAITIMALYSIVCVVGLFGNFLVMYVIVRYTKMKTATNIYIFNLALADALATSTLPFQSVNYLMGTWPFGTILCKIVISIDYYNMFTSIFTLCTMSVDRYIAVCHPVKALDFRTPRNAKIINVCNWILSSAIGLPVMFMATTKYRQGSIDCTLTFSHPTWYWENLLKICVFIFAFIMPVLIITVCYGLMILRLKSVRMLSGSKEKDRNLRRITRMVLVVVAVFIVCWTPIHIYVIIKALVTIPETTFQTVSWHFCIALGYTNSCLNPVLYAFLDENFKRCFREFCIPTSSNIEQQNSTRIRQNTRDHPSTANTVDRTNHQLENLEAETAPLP
Text: as §1

adult male C57BL6/J mice [2] = conditions: mouse, in vivo
kappa opioid receptor [3] = target: T1, kappa opioid receptor; assay: Bias analysis by operational model, G protein vs βarrestin2, U69,593 as reference agonist; conditions: U69,593 reference agonist; global parameter fitting
Target sequence in this assay (P41145 whole entry, the tested form may be a part): as the sequence (P41145 whole entry, the tested form may be a part) above

kappa opioid receptor [4] = target: T1, kappa opioid receptor; assay: GTPγS binding assay (G-protein activation); type: biochemical; conditions: for EC50: 3 parameter nonlinear regression, nc = did not converge; for GTPγS Emax (% U60): relative to U69,593 = 100% Emax
Target sequence in this assay (P41145 whole entry, the tested form may be a part): as above

adult male C57BL6/J mice [5] = assay: Open field test box mouse model for sedation; conditions: 60 minutes
[6] = Microsomal stability, LC/MS detection over time; conditions: mouse hepatic microsomes
Procedure: (§2) Microsomal stability was determined using mouse hepatic microsomes and LC/MS detections over time (Zhou et al., 2013, 22).

[7] = mouse, microsomes
Procedure: as §2

| Structure (SMILES) | EC50 (kappa opioid receptor [1]; read-out: β-arrestin2 EC50) [nM] | β-arrestin2 Emax (% U60) (kappa opioid receptor [1]) | β-arrestin2 maximum stimulation observed at 10 μM (starred Emax cells / % max at 10 uM) (kappa opioid receptor [1]) | EC50 (kappa opioid receptor [4]) [nM] | GTPγS Emax (% U60) (kappa opioid receptor [4]) | Microsomal Stability [7] [min] | also measured |
| --- | --- | --- | --- | --- | --- | --- | --- |
| Cc1ccc(CCc2nnc(-c3ccccn3)n2Cc2cccs2)cc1C(F)(F)F [Compound 5] | 624 | 110 | – | – | – | – | displacement of radioligand binding to δ-opioid receptor (δ-opioid receptor): less than 50%; displacement of radioligand binding to μ-opioid receptor (μ-opioid receptor): less than 50%; sedation in open field test activity monitor (adult male C57BL6/J mice [2]): does not induce sedation |
| Cc1ccc(/C=C/c2nnc(-c3ccccn3)n2Cc2cccs2)cc1C(F)(F)F [49 (UNC9009)] | 20600 | – | 36.4 (% max at 10 uM) % U60 | 667 | 83.2 | – | Bias (bias factor 10^ΔΔ(logτ/KA) Gprotein-Barr2) (kappa opioid receptor [3]): 6.7 |
| Cc1ccc(CSc2nnc(-c3ccccn3)n2Cc2ccco2)cc1C(F)(F)F [Triazole 1.1] | – | – | – | – | – | – | sedation in open field test activity monitor (adult male C57BL6/J mice [5]): does not induce sedation; time spent in the center of the open field box (adult male C57BL6/J mice [5]): did not effect center time; Microsomal Stability [6]: 1.1 min |
| Clc1ccc(CCc2nnc(-c3ccccn3)n2Cc2cccs2)c(Cl)c1 [Compound 33] | – | 154 | – | – | 91 | – | Microsomal Stability [6]: 2.1 min |
| Cc1ccc(CCc2nnc(-c3nccn3C)n2Cc2cccs2)cc1C(F)(F)F [Compound 56] | 888 | 98 | – | 95 | 105 | – | Bias (bias factor 10^ΔΔ(logτ/KA) Gprotein-Barr2) (kappa opioid receptor [3]): 12 |
| Cc1ccc(/C=C/c2nnc(-c3ccccn3)n2Cc2ccco2)cc1C(F)(F)F (single isomer, unassigned) [Compound 40] | 7200 | 54 | – | 1600 | 97 | 18 | Bias (bias factor 10^ΔΔ(logτ/KA) Gprotein-Barr2) (kappa opioid receptor [3]): 5; KOR potency / activity in words (SAR commentary) (kappa opioid receptor [4]): loss in potency |
| Cc1ccc(/C=C/c2nnc(-c3ccccn3)n2Cc2ccco2)cc1C(F)(F)F [42 (UNC9008)] | 51300 | 119 | – | 1600 | 96.5 | – | Bias (bias factor 10^ΔΔ(logτ/KA) Gprotein-Barr2) (kappa opioid receptor [3]): 3.5 |
| Clc1ccc(CCc2nnc(-c3ccccn3)n2Cc2cccs2)cc1Cl [Compound 32] | – | – | – | – | – | – | Microsomal Stability [6]: 1.5 min |
| Cc1ccc(CCCN(CCCc2ccco2)C(=O)c2ccccn2)cc1C(F)(F)F [Compound 64] | > 10000 | – | 26* % U60 | 3060 | 88 | 1.0 | – |
| Cc1ccc(/C=C/c2nnc(-c3nccn3C)n2Cc2ccco2)cc1C(F)(F)F [Compound 49] | – | – | 17* % U60 | – | 76 | 14.1 | – |
| Cc1ccc(CCc2nnc(-c3ccccn3)n2Cc2nccs2)cc1C(F)(F)F [Compound 7] | 3570 | 82 | – | 51 | 63 | 2.1 | – |
| Clc1ccc(CCc2nnc(-c3ccccn3)n2Cc2cccs2)cc1 [Compound 27] | 3740 | 102 | – | 35 | 93 | 3.3 | – |
| Cc1ccc(CCc2nnc(-c3ccccn3)n2Cc2ccco2)cc1C(F)(F)F [Compound 2] | – | 119 | – | – | 90 | – | EC50 (kappa opioid receptor [1]; β-arrestin2 EC50 (nM)): 788 nM; Microsomal Stability ([6]; Table 1, head prints no unit (b175 gives min)): 0.9; Microsomal Stability [6]: 0.9 min |
| Cc1ccc(/C=C/c2nnc(-c3ccccn3)n2Cc2nccs2)cc1C(F)(F)F [Compound 48] | – | – | 51* % U60 | 767 | 82 | 19.1 | – |
| C(=C/c1nnc(-c2ccccn2)n1Cc1ccco1)/c1ccccc1 [Compound 39] | – | – | 19* % U60 | 1800 | – | 12.6 | – |
| Cc1ccc(/C=C/c2nnc(-c3ccccn3)n2Cc2nccs2)cc1C(F)(F)F [50 (UNC9078)] | – | – | 51.6 (% max at 10 uM) % U60 | 767 | 81.6 | 10.1 | – |
| OC(Cc1ccccc1)c1nnc(-c2ccccn2)n1Cc1ccco1 (stereo not drawn) [Compound 41] | – | – | 0* % U60 | – | – | 17.4 | KOR potency / activity in words (SAR commentary) (kappa opioid receptor [4]): loss in potency; GTPγS maximum stimulation observed at 10 μM (starred Emax cells) (kappa opioid receptor [4]; * compounds that did not reach plateau, 10 μM): 22* % U60 |
| Cc1ccc(CCN(CCc2ccco2)C(=O)c2ccccn2)cc1C(F)(F)F [Compound 61] | > 10000 | – | 41* % U60 | 1540 | 78 | 0.9 | – |
| Brc1ccc(CCc2nnc(-c3ccccn3)n2Cc2cccs2)cc1 [Compound 28] | 963 | 106 | – | – | 96 | 4.6 | – |
